Measured values from the supplement of paper PMC4862054.

Key:
Settings in all cases: incubation time: 72 h
HDQ-P1 = assay: normalised viability (% of control), CellTiter-Blue; higher = more viable cells (about 100 = DMSO control)
Outline: (§1)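 384-well plates were pre-loaded with compound in 5 µl medium before 20 µl of breast cancer cell suspension was seeded. Following 72 h incubation, 2.5 µl CellTiter-Blue reagent was added for 2 h at 37 °C. Fluorescence was read at 560/590 nm and plates were normalised to vehicle (100) and a positive kill control (0), checked by Z'-factor. Normalised viability is reported at a single listed concentration of the series.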

DU-4475 [1] = assay: as above
Outline: as §1

SK-BR-3 = assay: as above
Outline: as §1

CAL-120 [2] = assay: as above
Outline: as §1

MDA-MB-231 = assay: as above
Outline: as §1

MDA-MB-468 [3] = assay: as above
Outline: as §1

CAL-85-1 [4] = assay: as above
Outline: as §1

CAL-148 [5] = assay: as above
Outline: as §1

MDA-MB-453 [6] = assay: as above
Outline: as §1

HCC1937 = assay: normalised response (% of control), CellTox Green; higher = less cell death (100 = DMSO, 0 = benzethonium chloride kill control)
Outline: (§2)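 Breast cancer cell lines (20 µl suspension) were seeded into 384-well plates holding compound at 5 concentrations in 10-fold steps over a compound-specific 10,000-fold range, then incubated 72 h. CellTox Green fluorescence (485/520 nm) was read first, then CellTiter-Glo luminescence after 10 min at room temperature. Each plate was normalised to 0.1 % DMSO (100) and a positive kill control (0). Each value is the normalised signal at a single concentration of the series.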

DU-4475 [7] = assay: as above
Outline: as §2

Hs578T = assay: as above
Outline: as §2

MFM-223 = assay: as above
Outline: as §2

HCC1143 = assay: as above
Outline: as §2

CAL-120 [8] = assay: as above
Outline: as §2

HCC1599 = assay: as above
Outline: as §2

MCF-10A = assay: as above
Outline: as §2

MDA-MB-468 [9] = assay: as above
Outline: as §2

CAL-85-1 [10] = assay: as above
Outline: as §2

BT-549 = assay: as above
Outline: as §2

MDA-MB-436 = assay: as above
Outline: as §2

CAL-148 [11] = assay: as above
Outline: as §2

BT-474 = assay: as above
Outline: as §2

MDA-MB-453 [12] = assay: as above
Outline: as §2

CAL-51 = assay: as above
Outline: as §2

CCCC(CCC)C(=O)O [Valproic acid]
normalised viability (HDQ-P1; 3 nM): 124%
normalised viability (HDQ-P1; 30 nM): 116%
normalised viability (HDQ-P1; 100 nM): 122%
normalised viability (DU-4475 [1]; 3 nM): 88.6%
normalised viability (DU-4475 [1]; 30 nM): 81.7%
normalised viability (DU-4475 [1]; 100 nM): 76.3%
normalised viability (SK-BR-3; 10 nM): 102%
normalised viability (SK-BR-3; 1000 nM): 107%
normalised viability (SK-BR-3; 10000 nM): 95.9%
normalised viability (CAL-120 [2]; 10 nM): 104%
normalised viability (CAL-120 [2]; 1000 nM): 104%
normalised viability (CAL-120 [2]; 10000 nM): 93.9%
normalised viability (MDA-MB-231; 10 nM): 109%
normalised viability (MDA-MB-231; 1000 nM): 101%
normalised viability (MDA-MB-231; 10000 nM): 116%
normalised viability (MDA-MB-468 [3]; 10 nM): 105%
normalised viability (MDA-MB-468 [3]; 1000 nM): 117%
normalised viability (MDA-MB-468 [3]; 10000 nM): 121%
normalised viability (CAL-85-1 [4]; 3 nM): 86.4%
normalised viability (CAL-85-1 [4]; 30 nM): 84.7%
normalised viability (CAL-85-1 [4]; 100 nM): 96.6%
normalised viability (CAL-148 [5]; 3 nM): 99.9%
normalised viability (CAL-148 [5]; 30 nM): 97.9%
normalised viability (CAL-148 [5]; 100 nM): 109%
normalised viability (MDA-MB-453 [6]; 3 nM): 112%
normalised viability (MDA-MB-453 [6]; 30 nM): 102%
normalised viability (MDA-MB-453 [6]; 100 nM): 109%

CCCC(CCC)C(=O)O [Valproic acid] (10000 nM)
normalised response (HCC1937): 76%
normalised response (DU-4475 [7]): 104%
normalised response (Hs578T): 100%
normalised response (MFM-223): 101%
normalised response (HCC1143): 94.8%
normalised response (CAL-120 [8]): 106%
normalised response (HCC1599): 93.2%
normalised response (MCF-10A): 107%
normalised response (MDA-MB-468 [9]): 86.2%
normalised response (CAL-85-1 [10]): 111%
normalised response (BT-549): 117%
normalised response (MDA-MB-436): 117%
normalised response (CAL-148 [11]): 102%
normalised response (BT-474): 85%
normalised response (MDA-MB-453 [12]): 107%
normalised response (CAL-51): 95.7%
